In patent publication US11161830B2, “4-pyridone compound or salt thereof, and pharmaceutical composition and formulation including same” (priority 2017, dated 2021):
Values joined by “and” are separate entries in the source; they are usually repeats but may differ in a detail not shown here. Equal values may be shown once. Read-outs that look alike come from different tables or passages of the source.

How the values were obtained:
[1] = test system: HBV genotype C; experiment: Test Example 3-1: in vivo efficacy study in PXB mouse (chimeric mouse with human hepatocytes); parameters: species or system hepatitis B virus; settings: orally 100 mg/kg twice a day for 14 days
Experimental: An in vivo efficacy study with a. PXB mouse (a chimeric mouse with human hepatocytes) was carried out in PhenixBio Co., Ltd. 27-Week-or-more-old male mice having body weights of 15 g or more after the elapse of 12 weeks from the infection with HBV genotype C were allocated into three groups (2 mice per group) and used.
The compounds of Examples 6-5 and 10-2 were each orally administered at 100 mg/kg twice a day for 14 days. The other group was taken as a control group for which administration was not carried out. A first administration day was taken as day 0, and before administration on day 0, day 3, Day 7, and day 10, and on day 14, the blood was collected from the orbital venous plexus under anesthesia with isoflurane. The serum was separated from the collected blood and purified with a QIAamp (registered trademark) DNA Blood Mini Kit (manufactured by QIAGEN). The amount of HBV-DNA in the obtained solution was absolutely quantified by a real-time PCR method. In addition, the amount of HBsAg and the amount of HBcrAg in the serum were each absolutely quantified by chemiluminescent enzyme immunoassay using Lumipulse (registered trademark) HBsAg-HQ (manufactured by Fujirebio Inc.) and Lumipulse (registered trademark) HBcrAg (manufactured by Fujirebio Inc.).

[2] = test system: HBV (genotype AeUS); experiment: Test Example 2-1: anti-HBV assay in PXB-cells (fresh human hepatocytes); format: cell-based, hepatitis B virus; settings: Hepatitis B virus, Hepatocyte, PXB-cells infected with HBV genotype AeUS, culture supernatant on day 32 post infection
In short: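 PXB-cells (primary human hepatocytes from chimeric mice) infected with mouse-serum-derived HBV genotype AeUS at ~10 copies/cell with 4% PEG-8000. Compound dosed days 17–32 post-infection, refreshed every 5 days, 37 °C. Day-32 supernatant HBV-DNA by real-time PCR and HBsAg by chemiluminescent immunoassay, as % of untreated control; IC50 by log-linear regression.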

[3] = Day 0 (before administration), individual mice

SMILES	HBV-DNA in serum [1, 3]	HBcrAg in serum [1, 3]	HBsAg in serum [1, 3]	HBV-DNA in serum ([1]; Day 3, individual mice)	HBcrAg in serum ([1]; Day 3, individual mice)	HBsAg in serum ([1]; Day 3, individual mice)	HBV-DNA in serum ([1]; Day 7, individual mice)	HBcrAg in serum ([1]; Day 7, individual mice)	HBsAg in serum ([1]; Day 7, individual mice)	HBV-DNA in serum ([1]; Day 10, individual mice)	HBsAg in serum ([1]; Day 10, individual mice)	HBV-DNA in serum ([1]; Day 14, individual mice)	HBcrAg in serum ([1]; Day 14, individual mice)	HBsAg in serum ([1]; Day 14, individual mice)	IC50 ([2]; read-out: IC50 HBV-DNA)	IC50 ([2]; read-out: IC50 HBsAg)
COCCN1CCN(c2nc3ccc(-n4cc(C(=O)O)c(=O)cc4-c4ccc(N5CCCC5)c(Cl)c4)cc3s2)CC1 [Example 6-5, 6-(3-chloro-4-(pyrrolidin-1-yl)phenyl)-1-(2-(4-(2-methoxyethyl)piperazine-1-yl)benzo[d]thiazol-6-yl)-4-oxo-1,4-dihydropyridine-3-carboxylic acid]	2.3E+09 copies/mL and 2.1E+09 copies/mL	4.5E+08 U/mL and 2.9E+08 U/mL	3,578 IU/mL and 2,370 IU/mL	8.7E+08 copies/mL and 7.1E+08 copies/mL	1.5E+08 U/mL and 9.7E+07 U/mL	781 IU/mL and 357 IU/mL	2.7E+08 copies/mL and 2.9E+08 copies/mL	8.7E+07 U/mL and 7.7E+07 U/mL	570 IU/mL and 345 IU/mL	3.4E+08 copies/mL and 6.3E+08 copies/mL	588 IU/mL and 355 IU/mL	3.3E+08 copies/mL and 8.4E+08 copies/mL	7.5E+07 U/mL and 9.1E+07 U/mL	540 IU/mL and 349 IU/mL	< 0.008 µM	0.016 µM
COC[C@H]1CCCN1c1nc2ccc(-n3cc(C(=O)O)c(=O)cc3-c3ccc(N4CC[C@@H](OC)C4)cc3)cc2s1 [Example 10-2, 1-(2-((R)-2-(methoxymethyl)pyrrolidin-1-yl)benzo[d]thiazol-6-yl)-6-(4-((R)-3-methoxypyrrolidin-1-yl)phenyl)-4-oxo-1,4-dihydropyridine-3-carboxylic acid]	1.5E+09 copies/mL and 3.2E+09 copies/mL	2.7E+08 U/mL and 4.1E+08 U/mL	2,930 IU/mL and 2,629 IU/mL	1.0E+09 copies/mL and 1.4E+09 copies/mL	8.8E+07 U/mL and 1.4E+08 U/mL	638 IU/mL and 564 IU/mL	6.9E+08 copies/mL and 4.7E+08 copies/mL	7.5E+07 U/mL and 7.3E+07 U/mL	450 IU/mL and 429 IU/mL	8.4E+08 copies/mL and 6.4E+08 copies/mL	476 IU/mL and 407 IU/mL	9.6E+08 copies/mL and 1.3E+09 copies/mL	7.8E+07 U/mL and 9.8E+07 U/mL	522 IU/mL and 477 IU/mL	0.018 µM	0.022 µM
